Test results reported in ChEMBL document CHEMBL3045400, “Synthesis of novel triazole derivatives as potent inhibitor of allene oxide synthase (CYP74A), a key enzyme in jasmonic acid biosynthesis” (J Pestic Sci, 2012).

The compounds below were run against T1, Allene oxide synthase, chloroplastic (Arabidopsis thaliana, UniProt Q96242) (assay: Inhibition of recombinant Arabidopsis thaliana allene oxide synthase activity by spectrophotometry).
T1 sequence (Q96242 whole entry): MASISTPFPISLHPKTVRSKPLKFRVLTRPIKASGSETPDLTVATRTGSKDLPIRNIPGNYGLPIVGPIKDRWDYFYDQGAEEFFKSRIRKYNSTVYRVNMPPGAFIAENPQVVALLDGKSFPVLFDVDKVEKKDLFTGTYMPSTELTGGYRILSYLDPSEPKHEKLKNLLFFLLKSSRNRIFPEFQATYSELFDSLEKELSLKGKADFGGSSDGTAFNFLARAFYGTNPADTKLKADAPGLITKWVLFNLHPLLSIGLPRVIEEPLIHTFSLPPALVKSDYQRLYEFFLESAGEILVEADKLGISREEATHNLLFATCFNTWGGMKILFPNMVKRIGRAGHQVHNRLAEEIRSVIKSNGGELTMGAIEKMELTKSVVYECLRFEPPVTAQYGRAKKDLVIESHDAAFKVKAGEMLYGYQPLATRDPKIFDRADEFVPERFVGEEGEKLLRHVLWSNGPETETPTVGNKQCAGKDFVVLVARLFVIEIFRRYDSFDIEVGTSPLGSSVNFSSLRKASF

Structure (SMILES)	IC50
COC(=O)CCCCCCCOC(Cn1cncn1)c1cccc(OC)c1 (stereo unspecified)	22500 nM
COC(=O)CCCCCCCOC(Cn1ccnc1)c1ccc(Cl)cc1Cl (stereo unspecified)	850 nM
COC(=O)CCCCCCCOC(Cn1cncn1)c1ccc(-c2ccccc2)cc1 (stereo unspecified)	54300 nM
COC(=O)CCCCCCCOC(Cn1cncn1)c1ccc(F)cc1 (stereo unspecified)	14500 nM
CCCCCCCOC(=O)CCCCCCCOC(Cn1ccnc1)c1ccc(Cl)cc1Cl (stereo unspecified)	10 nM
COC(=O)CCCCCCCOC(Cn1cncn1)c1ccc(Cl)cc1 (stereo unspecified)	1200 nM

Continued by falling IC50, values first:

IC50	Structure (SMILES)
2600 nM	COC(=O)CCCCCCCOC(Cn1cncn1)c1ccc(OC)cc1 (stereo unspecified)
1600 nM	COC(=O)CCCCCCCOC(Cn1cncn1)c1ccccc1 (stereo unspecified)
930 nM	COC(=O)CCCCCCCOC(Cn1cncn1)c1ccc(Cl)c(Cl)c1 (stereo unspecified)
840 nM	COC(=O)CCCCCCCOC(Cn1cncn1)c1ccc(Cl)cc1Cl (stereo unspecified)
750 nM	COC(=O)CCCCCCCOC(Cn1cncn1)c1ccc2ccccc2c1 (stereo unspecified)
